Assay [1] deals with T1, 5-HT2 serotoninergic receptors (Rattus norvegicus, UniProt P14842).
T1 construct: on rat frontal cortex preparations; from tissue; host or cells: rat frontal cortex
The experiment in a line: in-vitro affinity for 5-HT2 serotoninergic receptors, by measuring the displacement of aminoiodoketanserin, on rat frontal cortex preparations. Particulars: read-out: IC50 (concentration inhibiting binding of the labelled ligand by 50%) (converted). How it is done:
The in-vitro affinity of the compounds of the invention was determined
for 5-HT2 serotoninergic receptors, by measuring the displacement of aminoiodoketanserin, on rat frontal cortex preparations, […]

Details of assay [2]: species or system Rats or mice. As to conditions: in vivo.

Like-named read-outs stand apart in the source and are kept apart here.

T1 sequence (P14842 whole entry): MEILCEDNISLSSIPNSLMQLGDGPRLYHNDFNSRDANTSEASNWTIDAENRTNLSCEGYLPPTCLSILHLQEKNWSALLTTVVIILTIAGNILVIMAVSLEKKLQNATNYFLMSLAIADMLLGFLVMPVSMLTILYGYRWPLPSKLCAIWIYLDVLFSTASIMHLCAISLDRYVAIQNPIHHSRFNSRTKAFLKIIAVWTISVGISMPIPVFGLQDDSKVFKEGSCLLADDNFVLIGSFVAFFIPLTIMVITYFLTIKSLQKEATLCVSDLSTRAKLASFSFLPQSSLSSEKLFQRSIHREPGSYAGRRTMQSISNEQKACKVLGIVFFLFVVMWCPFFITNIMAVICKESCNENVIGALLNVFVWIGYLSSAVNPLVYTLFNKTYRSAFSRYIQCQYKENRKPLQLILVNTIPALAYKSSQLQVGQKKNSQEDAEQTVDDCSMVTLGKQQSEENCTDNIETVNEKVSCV

As for `O=C(c1ccc(F)cc1)C1CCN(CCn2c(=O)sc3cc(CCCCN4CCOCC4)ccc32)CC1` [Example 4, 3-{2-[4-(4-FLUOROBENZOYL)PIPERIDINO]ETHYL}-6-(4-MORPHOLINOBUTYL)BENZOTHIAZOLIN-2-ONE], the IC50 in assay [1] is 0.5 nM.

As for `O=C(c1ccc(F)cc1)C1CCN(CCn2c(=O)sc3ccccc32)CC1` [Example 1, 3-{2-[4-(4-FLUOROBENZOYL)PIPERIDINO]ETHYL}BENZOTHIAZOLIN-2-ONE], the IC50 in assay [1] is 1 nM.

In the case of `Cn1c(=O)sc2cc(CCN3CCC(C(=O)c4ccc(F)cc4)CC3)ccc21` [Example 48, 3-METHYL-6-{2-[4-(4-FLUOROBENZOYL)PIPERIDINO]ETHYL}BENZOTHIAZOLIN-2-ONE], the “inhibition of reaction time which the animal takes to lick its paws” value in assay [2] stood at 175%.

For `CN1CC[C@]23c4c5ccc(O)c4O[C@H]2[C@@H](O)C=C[C@H]3[C@H]1C5` [morphine, reference compound], the “inhibition of reaction time which the animal takes to lick its paws” value in assay [2] (ip) worked out at 129%.

`COc1ccccc1N1CCN(CCCCc2ccc3c(c2)sc(=O)n3CCN2CCC(C(=O)c3ccc(F)cc3)CC2)CC1` [Example 3, 3-{2-[4-(4-FLUOROBENZOYL)PIPERIDINO]ETHYL}-6-(4-[4-(2-METHOXY-PHENYL)PIPERAZINYL]BUTYL}BENZOTHIAZOLIN-2-ONE]: the IC50 in assay [1] was 1 nM.

These data come from patent US5534517A, “(Aryl(alkyl)carbonyl)-heterocyclic compounds and their use in the treatment of anxiety and depression” (Adir Et Compagnie, priority 1993, dated 1996).
